Like-named read-outs stand apart in the source and are kept apart here.
Target: recombinant eIF4E (Homo sapiens (Human), UniProt P06730)
Test: Fluorescence polarization competition assay for eIF4E binding potency
Procedure, shortened: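 Competitive displacement format: compounds compete with a fluorescent m7GDP tracer (20 nM) for 75 nM recombinant eIF4E. Incubation is 30 min at room temperature, protected from light, with 1% DMSO. Polarization read gives IC50 over eight 3-fold concentrations.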

[1] = fluorescence polarization competition, 75 nM recombinant eIF4E, 20 nM EDA-m7GDP-ATTO-550, IC50 class, read-out: elF4E FP
[2] = inhibition of eIF4E/EDA-m7GDP-ATTO-550 binding, calculated IC50 values, Table 4B, read-out: IC50
[3] = inhibition of eIF4E/EDA-m7GDP-ATTO-550 binding by 50%, Table 4B calculated values, read-out: IC50

Chain of recombinant eIF4E (P06730 whole entry): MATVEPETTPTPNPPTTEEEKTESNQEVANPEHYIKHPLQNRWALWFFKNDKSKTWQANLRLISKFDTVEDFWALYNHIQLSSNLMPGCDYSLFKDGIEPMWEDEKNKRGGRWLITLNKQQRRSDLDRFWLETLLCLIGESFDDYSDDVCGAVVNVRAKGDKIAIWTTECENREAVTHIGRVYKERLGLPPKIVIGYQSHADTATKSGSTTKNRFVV

Row | SMILES | IC50 [1] | IC50 [2] | IC50 [3]
1 | Cc1cc(-c2cc(Cl)ccc2OCCn2c(C)nc3cnc([C@H]4C[C@@H](O)C4)c(C#N)c3c2=O)c2scc(C(=O)O)c2n1 [compound 1194] | < 0.05 µM | 0.0153 µM | –
2 | Cc1cc(F)cc(-c2c(C(F)(F)F)cc3nc(C)n(CCOc4ccc(Cl)cc4-c4cc(C)nc5c(C(=O)O)csc45)c(=O)c3c2C#N)n1 [compound 684] | < 0.05 µM | – | 0.015 µM
3 | Cc1cc(-c2cc(Cl)ccc2OCCn2c(C)nc3cc(C(F)(F)F)c4c(c3c2=O)C(=O)CC4)c2scc(C(=O)O)c2n1 [compound 1974] | – | 0.0513 µM | –
4 | Cc1cc(-c2cc(Cl)ccc2OCCn2c(C)nc3c(C)nc(N4CCN(C)CC4)c(C#N)c3c2=O)c2scc(C(=O)O)c2n1 [compound 875] | < 0.05 µM | – | –
5 | Cc1nc2cnc(N(C)C3CCN(C4CC(F)(F)C4)CC3)c(C#N)c2c(=O)n1CC#Cc1ccc(Cl)cc1-c1ccnc2c(C(=O)NS(=O)(=O)c3ccncc3)csc12 [compound 1111] | < 0.05 µM | – | 0.00571 µM
6 | Cc1cc(-c2cc(Cl)ccc2OCCn2c(C)nc3cc(C(F)(F)F)c(C4CCNCC4)cc3c2=O)c2sc(C)c(C(=O)O)c2n1 [compound 877] | 0.05 to 1 µM | – | 0.234 µM
7 | Cc1cc(-c2cc(Cl)ccc2OCCn2c(C)nc3c(C)nc(-c4cccc(F)c4)c(C#N)c3c2=O)c2scc(C(=O)O)c2n1 [compound 475] | < 0.05 µM | – | 0.017 µM
8 | Cc1cc(-c2cc(Cl)ccc2OCCn2c(C)nc3c(C)nc(-c4cccc(Cl)c4)c(C#N)c3c2=O)c2scc(C(=O)O)c2n1 [compound 481] | < 0.05 µM | – | 0.0105 µM
9 | N#Cc1cccc2nc(C(F)F)n(CCOc3ccc(Cl)cc3-c3cccc(C(=O)O)c3)c(=O)c12 [compound 1973] | – | 0.0143 µM | –
10 | Cc1nc2cc(C(F)(F)F)cc(C#N)c2c(=O)n1CCOc1ccc(Cl)cc1-c1ccnc2c(C(=O)O)cnn12 [compound 661] | < 0.05 µM | – | 0.0121 µM
11 | CCc1cc(-c2cc(Cl)ccc2OCCn2c(C)nc3cc(C(F)(F)F)c(-c4ccccn4)c(C#N)c3c2=O)c2scc(C(=O)O)c2n1 [compound 747] | < 0.05 µM | – | 0.0189 µM
12 | Cc1cc(-c2cc(Cl)ccc2OCCn2c(C)nc3cc4c(c(C#N)c3c2=O)CN(C)C4)c2scc(C(=O)O)c2n1 [compound 712] | < 0.05 µM | – | 0.0196 µM
13 | Cc1cc(-c2cc(Cl)ccc2OCCn2c(C)nc3cc(Cl)c(N(C)C4CC4)c(C#N)c3c2=O)c2scc(C(=O)O)c2n1 [compound 957] | < 0.05 µM | – | 0.00581 µM
14 | Cc1cc(-c2cc(Cl)ccc2OCCn2c(C)nc3cnc(N4CC[C@@H](O)C4)c(C#N)c3c2=O)c2scc(C(=O)O)c2n1 [compound 883] | < 0.05 µM | – | 0.0128 µM
15 | Cc1nc2cnc(N(C)C3CCN(C4COC4)CC3)c(C#N)c2c(=O)n1CC#Cc1ccc(Cl)cc1-c1ccnc2c(C(=O)O)csc12 [compound 1523] | – | 0.0131 µM | –
16 | CCc1cc(-c2cc(Cl)ccc2OCCn2c(C)nc3c(C)nc(N)c(C#N)c3c2=O)c2scc(C(=O)O)c2n1 [Compound 1069] | < 0.05 µM | – | 0.00152 µM
17 | CS(=O)(=O)c1cc(C(=O)O)cc(-c2cc(Cl)ccc2OCCn2cnc3cnc(C#N)cc3c2=O)c1 [compound 112] | > 1 µM | – | > 3 µM
18 | Cc1nc2cc(C(F)(F)F)cc(C#N)c2c(=O)n1CCOc1ccc(Cl)cc1-c1ccnc2c(CC(=O)O)csc12 [compound 202] | < 0.05 µM | – | 0.0474 µM
19 | C=C1c2c(C#N)cc(C(F)(F)F)cc2N=C(C)N1CCOc1ccc(Cl)cc1-c1cc(CCO)nc2c(C(=O)O)csc12 [compound 595] | < 0.05 µM | – | 0.0248 µM
20 | Cc1nc2cnc(N(C)C3CCN(CC(F)(F)F)CC3)c(C#N)c2c(=O)n1CC#Cc1ccc(Cl)cc1-c1ccnc2c(C(N)=O)csc12 [compound 1594] | – | 0.442 µM | –
21 | CONC(=O)c1csc2c(-c3cc(Cl)ccc3OCCn3c(C)nc4c(F)cc(C(F)F)c(C#N)c4c3=O)ccnc12 [compound 303] | 0.05 to 1 µM | – | –
22 | Cc1cc(-c2cc(Cl)ccc2OCCn2c(C)nc3cc(C(F)(F)F)c(N4CCC(C)CC4)nc3c2=O)c2scc(C(=O)O)c2n1 [compound 800] | < 0.05 µM | – | 0.0324 µM
23 | CCN(c1ncc2nc(C)n(CC#Cc3ccc(Cl)cc3-c3ccnc4c(C(=O)NS(=O)(=O)Cc5ccccn5)csc34)c(=O)c2c1C#N)C1CCN(C2COC2)CC1 [compound 1738] | – | 0.0255 µM | –
24 | Cc1nc2cc(C(F)(F)F)cc(C#N)c2c(=O)n1CCOc1ccc(Cl)cc1-c1nccc2c(C(=O)O)csc12 [compound 225] | 0.05 to 1 µM | – | 0.147 µM
25 | CCc1cc(-c2cc(Cl)ccc2OCCn2c(C)nc3cc(C(F)(F)F)c(CC4CCNCC4)c(C#N)c3c2=O)c2scc(C(=O)O)c2n1 [compound 1276] | – | 0.0135 µM | –
26 | Cc1nc2cnc(N(C)C3CCN([C@H]4C[C@H](F)C4)CC3)c(C#N)c2c(=O)n1CC#Cc1ccc(Cl)cc1-c1ccnc2c(C(=O)NS(C)(=O)=O)csc12 [compound 1602] | – | 0.00388 µM | –

Row | SMILES | IC50 [1] | IC50 [2] | IC50 [3]
27 | O=C(O)c1cccc(-c2cc(Cl)ccc2OCCn2cnc3ncncc3c2=O)c1 [compound 17] | 0.05 to 1 µM | – | 0.721 µM
28 | Cc1nc2cc(C(F)(F)F)c3c(c2c(=O)n1CCOc1ccc(Cl)cc1-c1ccnc2c(C(=O)O)csc12)C(=O)OC3 [compound 1972] | – | 0.018 µM | –
29 | Cc1cnc(-c2nc3c(=O)n(CCOc4ccc(Cl)cc4-c4cc(C)nc5c(C(=O)O)csc45)c(C)nc3cc2C(F)(F)F)cn1 [compound 1018] | < 0.05 µM | – | 0.00671 µM
30 | CC(C)(C#N)c1cc(C(=O)O)cc(-c2cc(Cl)ccc2OCCn2cnc3cnc(C#N)cc3c2=O)c1 [compound 110] | > 1 µM | – | 26.9 µM
31 | Cc1nc2cnc(N(C)C3CCN(C)C(C(F)F)C3)c(C#N)c2c(=O)n1CCOc1ccc(Cl)cc1-c1ccnc2c(C(=O)O)csc12 (stereo not drawn) [compound 866] | < 0.05 µM | – | 0.0168 µM
32 | Cc1nc2cc(Cl)c(Cl)c(C#N)c2c(=O)n1CCOc1ccc(Cl)cc1-c1ccnc2c(C(=O)O)csc12 [compound 207] | < 0.05 µM | – | 0.0213 µM
33 | Cc1nc2cc(F)c(C(F)F)c(C#N)c2c(=O)n1CCOc1ccc(Cl)cc1-c1ccnc2c(C(=O)O)csc12 [compound 230] | < 0.05 µM | – | 0.0149 µM
34 | Cc1sc2c(-c3cc(Cl)ccc3OCCn3c(C)nc4cc(C(F)(F)F)c(N5CCN(C)CC5)cc4c3=O)ccnc2c1C(=O)O [compound 1210] | < 0.05 µM | 0.0483 µM | –
35 | Cc1cc(-c2cc(Cl)ccc2OCCn2c(C)nc3cc(C(F)(F)F)c(C4CC4)nc3c2=O)c2scc(C(=O)O)c2n1 [compound 795] | < 0.05 µM | – | 0.0121 µM
36 | Cc1cc(-c2cc(Cl)ccc2OCCn2c(C)nc3cc(C(C)N(C)C)c(OC(F)F)c(C#N)c3c2=O)c2scc(C(=O)O)c2n1 (stereo not drawn) [compound 710] | < 0.05 µM | – | 0.0316 µM
37 | Cc1nc2cnc(N(C)C3CCN(CC(F)(F)Cl)CC3)c(C#N)c2c(=O)n1CC#Cc1ccc(Cl)cc1-c1ccnc2c(C(=O)O)csc12 [compound 1585] | – | 0.0152 µM | –
38 | Cc1cc(-c2cc(Cl)ccc2OCCn2c(C)nc3cc(C(F)(F)F)c(-c4ccc(C)c(C)n4)c(C#N)c3c2=O)c2scc(C(=O)O)c2n1 [compound 904] | < 0.05 µM | – | 0.00419 µM
39 | Cn1cc(CCOc2ccc(Cl)cc2-c2ccnc3c(C(=O)O)csc23)c(=O)c2c(C#N)cc(C(F)(F)F)cc21 [compound 353] | 0.05 to 1 µM | – | 0.101 µM
40 | Cc1cc(-c2cc(Cl)ccc2OCCn2c(C)nc3cc(C(F)(F)F)c(N4CC(O)C4)nc3c2=O)c2scc(C(=O)O)c2n1 [compound 797] | < 0.05 µM | – | 0.00679 µM
41 | Cc1cc(-c2cc(Cl)ccc2OCCn2c(C)nc3cc(C(F)(F)F)c(OC4CC4)c(C#N)c3c2=O)c2scc(C(=O)O)c2n1 [compound 1034] | < 0.05 µM | – | 0.0379 µM
42 | Cc1cc(-c2cc(Cl)ccc2OCCn2c(C)nc3cnc(N4CCC4)c(C#N)c3c2=O)c2scc(C(=O)O)c2n1 [compound 435] | < 0.05 µM | – | 0.0167 µM
43 | Cc1cccc(-c2c(Cl)cc3nc(C)n(CCOc4ccc(Cl)cc4-c4cc(C)nc5c(C(=O)O)c(C)sc45)c(=O)c3c2C#N)n1 [compound 683] | < 0.05 µM | – | 0.0403 µM
44 | N#Cc1cc(C(F)(F)F)cc2ncn(CCOc3ccc(Cl)cc3-c3ccnc(C(=O)O)c3)c(=O)c12 [compound 162] | < 0.05 µM | – | 0.0287 µM
45 | C#Cc1c(C(=O)O)cccc1-c1cc(Cl)ccc1OCCn1cnc2cnc(C#N)cc2c1=O [compound 127] | 0.05 to 1 µM | – | 0.077 µM
46 | Cc1cc(-c2cc(Cl)ccc2OCCn2c(C)nc3c(F)cc(C(F)F)c(C#N)c3c2=O)c2scc(C(=O)NS(=O)(=O)C(F)(F)F)c2n1 [compound 593] | < 0.05 µM | – | 0.0329 µM
47 | Cc1cc(-c2cc(Cl)ccc2OCCn2c(C)nc3cc(C(F)(F)F)c(-c4ccncc4)c(C#N)c3c2=O)c2scc(C(=O)O)c2n1 [compound 629] | < 0.05 µM | – | 0.00639 µM
48 | Cc1nc2cc(C(F)(F)F)cc(C#N)c2c(=O)n1CCOc1ccc(Cl)cc1-c1ccnc2c(C(=O)NS(C)(=O)=O)csc12 [compound 569] | < 0.05 µM | – | 0.002 µM
49 | Cc1cc(-c2cc(Cl)ccc2OCCn2c(C)nc3cnc(C4(C(F)(F)F)CC4)c(C#N)c3c2=O)c2scc(C(=O)O)c2n1 [compound 839] | < 0.05 µM | – | 0.0296 µM
50 | Cc1ccc(-c2ncc3nc(C)n(CCOc4ccc(Cl)cc4-c4cc(C)nc5c(C(=O)O)csc45)c(=O)c3c2C#N)cc1 [compound 946] | < 0.05 µM | – | 0.0277 µM
51 | Cc1cccc(-c2c(C(F)(F)F)cc3nc(C)n(CCOc4ccc(Cl)cc4-c4cccc(C(=O)O)c4)c(=O)c3c2C#N)n1 [compound 375] | 0.05 to 1 µM | – | 0.058 µM
52 | Cc1nc2cnc(N(C)C3CCN(C4(C)COC4)CC3)c(C#N)c2c(=O)n1CC#Cc1ccc(Cl)cc1-c1ccnc2c(C(=O)O)csc12 [compound 1118] | < 0.05 µM | – | 0.014 µM

Reference: patent publication US11286268B1, “EIF4E-inhibiting compounds and methods” (EFFECTOR THERAPEUTICS, INC., priority 2019, dated 2022)
